Values of other authors as cited in patent US20100256082A1, “Metallo-hydrolase inhibitors using metal binding moietes in combination with targeting moieties” (Viamet Pharmaceuticals, Inc., priority 2006, published 2010).

Experiments:
RDP = conditions: read-out: 50% inhibitory concentration; reversible, competitive inhibitor of RDP
PDE3A = PDE3A (Homo sapiens, UniProt Q14432, T844A); conditions: T844 to Ala mutant versus PDE3A
PDE3A, sequence (Q14432 whole entry T844A): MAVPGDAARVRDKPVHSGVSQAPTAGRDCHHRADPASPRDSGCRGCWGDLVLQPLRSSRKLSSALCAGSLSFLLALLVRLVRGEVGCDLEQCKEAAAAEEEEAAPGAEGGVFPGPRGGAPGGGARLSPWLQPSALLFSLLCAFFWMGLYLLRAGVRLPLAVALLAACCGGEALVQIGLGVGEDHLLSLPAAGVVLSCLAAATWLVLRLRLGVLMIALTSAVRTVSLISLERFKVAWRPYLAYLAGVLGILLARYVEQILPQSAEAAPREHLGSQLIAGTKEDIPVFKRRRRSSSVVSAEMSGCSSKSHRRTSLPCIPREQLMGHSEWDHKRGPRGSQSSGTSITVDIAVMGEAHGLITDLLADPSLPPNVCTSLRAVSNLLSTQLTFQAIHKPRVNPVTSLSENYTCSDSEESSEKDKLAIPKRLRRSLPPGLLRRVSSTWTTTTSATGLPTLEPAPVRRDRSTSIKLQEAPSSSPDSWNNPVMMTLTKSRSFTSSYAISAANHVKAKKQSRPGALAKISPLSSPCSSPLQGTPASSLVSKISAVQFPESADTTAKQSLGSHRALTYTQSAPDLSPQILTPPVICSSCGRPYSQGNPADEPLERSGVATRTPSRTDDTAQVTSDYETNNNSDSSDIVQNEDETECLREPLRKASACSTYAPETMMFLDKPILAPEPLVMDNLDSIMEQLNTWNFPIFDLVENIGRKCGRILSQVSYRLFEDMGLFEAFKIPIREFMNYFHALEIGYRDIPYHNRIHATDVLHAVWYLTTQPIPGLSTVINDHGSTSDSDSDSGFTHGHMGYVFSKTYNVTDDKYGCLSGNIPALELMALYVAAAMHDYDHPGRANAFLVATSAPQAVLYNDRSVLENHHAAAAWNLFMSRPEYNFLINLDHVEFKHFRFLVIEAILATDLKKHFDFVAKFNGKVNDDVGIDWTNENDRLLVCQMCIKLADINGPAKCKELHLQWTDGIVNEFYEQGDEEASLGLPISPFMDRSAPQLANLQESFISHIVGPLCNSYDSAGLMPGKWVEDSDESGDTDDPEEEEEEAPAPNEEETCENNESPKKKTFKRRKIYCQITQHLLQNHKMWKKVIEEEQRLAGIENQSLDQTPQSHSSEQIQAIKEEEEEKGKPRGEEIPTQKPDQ

effect of mutation of T844 to Ala in PDE3A on the K (PDE3A) | SMILES | also measured
 | CC1(C)C[C@@H]1C(=O)N/C(=C\CCCCSC[C@H](N)C(=O)O)C(=O)O [Cilastatin] | IC50 (RDP): 50.1 mM
no effect | Nc1nc2c(ncn2[C@@H]2O[C@@H]3COP(=O)(O)O[C@H]3[C@H]2O)c(=O)[nH]1 [cGMP] | 
 | O=C1CCc2cc(OCCCCc3nnnn3C3CCCCC3)ccc2N1 [cilostazol] | increase in Ki on mutation of T844 to Ala in PDE3A (PDE3A): 25 fold
no effect | Cc1[nH]c(=O)c(C#N)cc1-c1ccncc1 [milrinone] | 
